Laboratory results as given in patent US20110189266A1, “CORTICOSTEROID MICROVESICLES FOR TREATMENT OF CARDIOVASCULAR DISEASES” (MOUNT SINAI SCHOOL OF MEDICINE OF NEW YORK UNIVERSITY, priority 2008, published 2011).

Tests used:
[1] = test system: neo-intimal formation; conditions: prednisone- and Taxus stent-treated animals; Ribichini et al 2007; cited from earlier work
[2] = test system: atherosclerotic plaques of the abdominal aorta; assay: 18F-FDG PET/CT of the abdominal aorta (mean SUV), rabbit model of atherosclerosis; assay type: in vivo, New Zealand White (NZW) rabbits; conditions: single i.v. injection 15 mg/kg
Experimental: Seventeen male New Zealand White (NZW) rabbits (mean age 7 months; mean weight 3.5±0.2 kg; Covance) were included in this study. Aortic atherosclerotic plaques were induced in 15 NZW rabbits, through a well established model^18, by a combination of 7 months of high cholesterol diet (4.7% palm oil and 0.3% cholesterol-enriched diet; Research Diet Inc.) and a repeated balloon injury of the aorta (two weeks and six weeks after starting the high cholesterol diet). Aortic injury was performed from the aortic arch to the iliac bifurcation with a 4F Fogarty embolectomy catheter introduced through the femoral artery. […]
PET/CT images were analyzed on a Xeleris workstation. […] SUV was calculated by dividing the tissue concentration (kBq/mL) by the injected dose per gram of body weight (kBq/g).
The scans allow the quantification of the standard uptake value (SUV) of ^18F-FDG in the abdominal aorta. The SUV is the decay-corrected tissue concentration of FDG (in kBq/g), corrected for injected FDG dose and body weight (in kBq/g), and is a well-recognized method for quantification of FDG PET data. Prior to start of treatment, the aortas of six atherosclerotic rabbits and two non-atherosclerotic rabbits were measured to establish mean SUV levels of atherosclerotic and non-atherosclerotic rabbits.

[3] = test system: atherosclerotic plaque permeability, aortic wall; assay: Dynamic contrast enhanced MRI (DCE-MRI) to quantify changes in plaque permeability; assay type: in vivo, New Zealand White (NZW) rabbits; conditions: before vs two days after administration

| Molecule | neo-intimal formation [1] | SUV differences between pre, and two and seven days post treatment [2] | SUV change one week post-treatment ([2]; one week post-treatment vs pre, p=0.006 (liposomal), p=0.40 (free)) | change of DCE-MRI area under the curve (AUC) of the aortic wall [3] |
| --- | --- | --- | --- | --- |
| C[C@]12C=CC(=O)C=C1CC[C@@H]1[C@@H]2C(=O)C[C@@]2(C)[C@H]1CC[C@]2(O)C(=O)CO [prednisone] | reduced neo-intimal formation |  |  |  |
| prednisolone phosphate disodium salt [free circulating glucocorticoids] |  | no significant SUV differences | no SUV reduction | not |
